Measured values as given in US20220033396A1, “FURTHER HETEROAROMATIC COMPOUNDS HAVING ACTIVITY AGAINST RSV” (priority 2018, published 2022).

Columns and labels:
rgRSV224 virus = assay: microbe, parasite or virus in culture; format: cell-based; conditions: human respiratory syncytial virus, 72 h; rgRSV224 virus (MOI=1), HeLa cells, GFP expression three days post-virus exposure; averaged data of several repeat experiments; read-out: RSV HELA EC50
in vitro = conditions: human

`C[C@@H]1c2ccccc2CCN1C(=O)c1cc(N2CCCC2)c2nc(-c3ccc(N4CC[C@H](C(N)=O)C4)cc3F)cn2c1` [Compound 20, (3S)-1-(3-Fluoro-4-{6-[(1R)-1-methyl-1,2,3,4-tetrahydroisoquinoline-2-carbonyl]-8-(pyrrolidin-1-yl)imidazo[1,2-a]pyridin-2-yl}phenyl)pyrrolidine-3-carboxamide] gave an EC50 (rgRSV224 virus) of 149 nM and a CC50 at 3 days (in vitro) greater than 100000 nM.
`C[C@@H]1c2ccccc2CCN1C(=O)c1cc(C2CC2)c2nc(-c3ccc(C(=O)O)cc3F)cn2c1` [Compound 1, 4-{8-Cyclopropyl-6-[(1R)-1-methyl-1,2,3,4-tetrahydroisoquinoline-2-carbonyl]imidazo[1,2-a]pyridin-2-yl}-3-fluorobenzoic Acid] gave an EC50 (rgRSV224 virus) of 510 nM and a CC50 at 3 days (in vitro) of 60400 nM.
`CCc1cc(C(=O)N2CCc3ccccc3[C@H]2C)nn2cc(-c3ccc(N4C[C@H](O)[C@@H](O)C4)cc3F)nc12` [Compound 34, (2-(4-((3 S,4 S)-3,4-dihydroxypyrrolidin-1-yl)-2-fluorophenyl)-8-ethylimidazo[1,2-b]pyridazin-6-yl)((R)-1-methyl-3,4-dihydroisoquinolin-2(1H)-yl)methanone] gave an EC50 (rgRSV224 virus) of 12 nM and a CC50 at 3 days (in vitro) of 24500 nM.
`C[C@@H]1c2ccccc2CCN1C(=O)c1cc(C2CC2)c2nc(-c3ccc(-n4cc(C(N)=O)cn4)cc3F)cn2c1` [Compound 26, 1-(4-{8-Cyclopropyl-6-[(1R)-1-methyl-1,2,3,4-tetrahydroisoquinoline-2-carbonyl]imidazo[1,2-a]pyridin-2-yl}-3-fluorophenyl)-1H-pyrazole-4-carboxamide] gave an EC50 (rgRSV224 virus) of 202 nM and a CC50 at 3 days (in vitro) of 42700 nM.
In the case of `CCc1cc(C(=O)N2CCc3ccc(F)cc3C2C)nn2cc(-c3ccc(NC(=O)N4CC[C@@H](O)C4)cc3F)nc12` (single isomer, unassigned) [Compound 41, (R)-N-(4-(8-ethyl-6-((R*)-7-fluoro-1-methyl-1,2,3,4-tetrahydroisoquinoline-2-carbonyl)-imidazo[1,2-b]pyridazin-2-yl)-3-fluorophenyl)-3-hydroxypyrrolidine-1-carboxamide], the EC50 (rgRSV224 virus) is reported as 26 nM and the CC50 at 3 days (in vitro) is reported as 26800 nM.
`C[C@@H]1c2ccccc2CCN1C(=O)c1cc(-c2cccnc2)c2nc(-c3ccc(N4CC[C@H](C(N)=O)C4)cc3F)cn2c1` [Compound 17, (3S)-1-(3-Fluoro-4-{6-[(1R)-1-methyl-1,2,3,4-tetrahydroisoquinoline-2-carbonyl]-8-(pyridin-3-yl)imidazo[1,2-a]pyridin-2-yl}phenyl)pyrrolidine-3-carboxamide] gave an EC50 (rgRSV224 virus) of 163 nM and a CC50 at 3 days (in vitro) of 44300 nM.
`C[C@@H]1c2ccccc2CCN1C(=O)c1cc(C2CC2)c2nc(-c3ccc(N4C[C@H](O)[C@@H](O)C4)cc3F)cn2n1` [Compound 51, (8-cyclopropyl-2-(4-((3 S,4 S)-3,4-dihydroxypyrrolidin-1-yl)-2-fluorophenyl)imidazo[1,2-b]pyridazin-6-yl)((R)-1-methyl-3,4-dihydroisoquinolin-2(1H)-yl)methanone] gave an EC50 (rgRSV224 virus) of 13 nM and a CC50 at 3 days (in vitro) of 38000 nM.
